Experiment [1] is described as follows: Binding affinity to full length STAT3alpha by fluorescence polarization assay.
The target in experiment [2] is T1, Signal transducer and activator of transcription 3 (Homo sapiens, UniProt P40763). Briefly: Inhibition of STAT3 SH2 domain assessed as inhibition of STAT3 SH2-phosphotyrosine interaction after 15 mins by fluorescence polarization assay. On the technique in general: Fluorescence polarisation rises when a labelled molecule tumbles more slowly, as on binding a larger partner.
T1 sequence (P40763 whole entry, the tested form may be a part): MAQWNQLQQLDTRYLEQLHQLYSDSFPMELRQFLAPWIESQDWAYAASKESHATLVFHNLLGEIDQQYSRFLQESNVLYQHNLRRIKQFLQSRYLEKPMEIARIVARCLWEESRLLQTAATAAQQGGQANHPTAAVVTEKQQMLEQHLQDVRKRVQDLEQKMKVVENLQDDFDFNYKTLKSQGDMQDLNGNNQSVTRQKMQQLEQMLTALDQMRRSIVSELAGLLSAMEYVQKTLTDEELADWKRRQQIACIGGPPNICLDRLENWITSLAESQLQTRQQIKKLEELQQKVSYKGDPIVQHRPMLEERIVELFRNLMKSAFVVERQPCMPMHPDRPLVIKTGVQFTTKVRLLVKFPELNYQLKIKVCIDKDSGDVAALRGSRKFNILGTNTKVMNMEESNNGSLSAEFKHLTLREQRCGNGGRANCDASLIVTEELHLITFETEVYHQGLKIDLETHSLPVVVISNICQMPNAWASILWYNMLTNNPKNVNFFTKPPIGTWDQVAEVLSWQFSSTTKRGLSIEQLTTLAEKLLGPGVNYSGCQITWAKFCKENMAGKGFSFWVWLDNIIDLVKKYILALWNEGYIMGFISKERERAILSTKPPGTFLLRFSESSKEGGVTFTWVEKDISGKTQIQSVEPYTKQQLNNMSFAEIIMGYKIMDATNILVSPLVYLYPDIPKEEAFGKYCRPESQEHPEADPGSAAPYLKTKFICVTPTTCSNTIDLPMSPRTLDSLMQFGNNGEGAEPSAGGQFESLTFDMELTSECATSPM

Experiment [3] is described as follows: Cytotoxicity against mouse TE71 without constitutively active STAT3 after 24 to 144 hrs by trypan blue-staining based phase contrast microscopy.
A short description of experiment [4]: Cytotoxicity against HPDEC without constitutively active STAT3 after 24 to 144 hrs by trypan blue-staining based phase contrast microscopy. Conditions: Homo sapiens.
In experiment [5] the target is T2, Signal transducer and activator of transcription 1-alpha/beta (Homo sapiens, UniProt P42224).
T2 sequence (P42224 whole entry): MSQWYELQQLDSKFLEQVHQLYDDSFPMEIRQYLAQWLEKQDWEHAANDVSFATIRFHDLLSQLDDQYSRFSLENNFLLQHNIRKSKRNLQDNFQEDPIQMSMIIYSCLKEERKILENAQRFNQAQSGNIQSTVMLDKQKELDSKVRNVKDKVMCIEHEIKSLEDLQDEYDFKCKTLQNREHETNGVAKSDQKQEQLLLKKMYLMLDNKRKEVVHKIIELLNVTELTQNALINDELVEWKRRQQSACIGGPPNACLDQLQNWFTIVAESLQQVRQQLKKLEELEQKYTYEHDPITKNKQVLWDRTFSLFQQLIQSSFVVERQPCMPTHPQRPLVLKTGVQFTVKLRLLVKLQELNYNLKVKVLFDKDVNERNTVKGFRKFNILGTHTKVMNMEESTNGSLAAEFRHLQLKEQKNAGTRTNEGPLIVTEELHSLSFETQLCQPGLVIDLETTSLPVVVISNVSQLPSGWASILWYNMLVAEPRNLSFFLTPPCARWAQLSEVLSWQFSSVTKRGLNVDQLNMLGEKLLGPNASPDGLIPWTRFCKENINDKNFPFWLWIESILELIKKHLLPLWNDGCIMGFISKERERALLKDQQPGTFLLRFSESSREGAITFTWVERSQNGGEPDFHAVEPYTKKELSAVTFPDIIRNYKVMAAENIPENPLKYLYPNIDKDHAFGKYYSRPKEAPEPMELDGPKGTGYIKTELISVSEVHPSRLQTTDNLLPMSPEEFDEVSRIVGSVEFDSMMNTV
Briefly: Inhibition of STAT1 SH2 domain by fluorescence polarization assay.

In another experiment the test system is MDA-MB-231. The experiment can be described thus: Cytotoxicity against human MDA-MB-231 cells harboring constitutively active STAT3 after 24 to 144 hrs by trypan blue-staining based phase contrast microscopy. The experiment is classed as functional, cell-based.
Experiment [6] addresses T3, Signal transducer and activator of transcription 3 (Mus musculus, UniProt P42227). Briefly: Binding affinity to STAT3 SH2 in v-Src transformed mouse NIH/3T3 cells overexpressing human EGFR. The experiment is classed as cell-based, NIH3T3.
For a further experiment, the system named is NIH3T3. The experiment can be described thus: Cytotoxicity against mouse NIH/3T3 cells without constitutively active STAT3 after 24 to 144 hrs by trypan blue-staining based phase contrast microscopy. The experiment is classed as cell-based.
Another experiment concerns PANC-1. Briefly: Cytotoxicity against human PANC1 cells harboring constitutively active STAT3 after 24 to 144 hrs by trypan blue-staining based phase contrast microscopy. The experiment is classed as functional, cell-based.
Experiment [7] deals with T3, Signal transducer and activator of transcription 3. The experiment can be described thus: Inhibition of STAT3 dimerization in v-Src transformed mouse NIH/3T3 cells overexpressing human EGFR assessed as suppression of STAT3-DNA interaction in nucleus after 30 mins by EMSA. It is filed as cell-based, NIH3T3.
Experiment [8] concerns the target Tyrosine-protein kinase JAK2 (Homo sapiens) (UniProt O60674). Conditions: at 5 µM.
Description: Inhibition of JAK2 at 5 uM by high throughput assay
The test system of the next experiment is SNU-398. The experiment can be described thus: Cytotoxicity against human SNU398 cells with impaired TGFbeta pathway assessed as growth inhibition at 250 uM after 72 hrs by MTT assay. The note with it: SNU-398, 72 h, read-out: GI. It is filed as functional. On the technique in general: Tetrazolium assays rely on reduction of a dye to a coloured formazan, in cell work by metabolically active cells.

Another experiment relates to HepG2. Briefly: Cytotoxicity against human HepG2 cells with intact TGFbeta pathway assessed as growth inhibition at 250 uM after 72 hrs by MTT assay. The experiment is classed as functional. Conditions: HepG2, 72 h, read-out: GI.
Experiment [9] can be described thus: Cytotoxicity against human SNU182 cells with impaired TGFbeta pathway assessed as growth inhibition at 250 uM after 72 hrs by MTT assay. It is filed as functional, cell-based. The note with it: SNU-182.
Another experiment relates to Huh-7. Briefly: Cytotoxicity against human HuH7 cells with impaired TGFbeta pathway assessed as growth inhibition at 250 uM after 72 hrs by MTT assay. It is filed as functional. The note with it: Huh-7, 72 h, read-out: GI.
Experiment [10] in a line: Cytotoxicity against human PLC/PRF/5 cells with intact TGFbeta pathway assessed as growth inhibition at 250 uM after 72 hrs by MTT assay. The experiment is classed as functional, cell-based.
The next experiment deals with SNU-475. The experiment can be described thus: Cytotoxicity against human SNU475 cells with impaired TGFbeta pathway assessed as growth inhibition at 250 uM after 72 hrs by MTT assay. It is filed as functional. The note with it: SNU-475, 72 h, read-out: GI.
For the next experiment, the system named is SNU-449. Briefly: Cytotoxicity against human SNU449 cells with intact TGFbeta pathway assessed as growth inhibition at 250 uM after 72 hrs by MTT assay. The experiment is classed as functional. Conditions: SNU-449, 72 h, read-out: GI.
For experiment [11], the target named is T1, Signal transducer and activator of transcription 3. The experiment can be described thus: Inhibition of STAT3 SH2 domain using 5-carboxyfluorescein-GY(PO3H2)LPQTV-NH2 as substrate preincubated for 60 mins prior to substrate addition by fluorescence polarization assay.
Experiment [12] addresses T2, Signal transducer and activator of transcription 1-alpha/beta. The experiment can be described thus: Inhibition of STAT1 SH2 domain assessed as inhibition of STAT1 SH2-phosphotyrosine interaction by AlphaScreen assay. (In general: Alpha assays give light when donor and acceptor beads are brought close together.)
Experiment [13] concerns the target T1, Signal transducer and activator of transcription 3. Briefly: Inhibition of STAT3 SH2 domain assessed as inhibition of STAT3 SH2-phosphotyrosine interaction by AlphaScreen assay.
Experiment [14] has the same target. Briefly: Inhibition of STAT3 expressed in human U3A cells after 1 hr by luciferase reporter gene assay. It is filed as cell-based.
For experiment [15] the target is unchanged. Briefly: Inhibition of IL6-mediated STAT3 phosphorylation in human HepG2 cells preincubated for 1 hr prior to IL6 challenge measured after 30 mins by immunoblot analysis. It is filed as cell-based.
Experiment [16] has the same target. The experiment can be described thus: Inhibition of recombinant STAT3 assessed as inhibition of STAT3-phosphododecapeptide interaction by SPR analysis.
Experiment [17] shares this target. Briefly: Inhibition of STAT3 in human MDA-MB-435 cells at 20 uM after 48 hrs by luciferase reporter gene assay relative to untreated control. The experiment is classed as cell-based.

Molecules are shown by their SMILES. Where a SMILES comes first, the peptide text is derived from it. [ ]: non-standard residue; d: D form. The star is where a group is joined. Pro(3S,4R-methano) = O=C(O)[C@H]1NC[C@@H]2C[C@@H]21; pY = N[C@@H](Cc1ccc(OP(=O)(O)O)cc1)C(=O)O; Hydrocinnamoyl = O=C(CCc1ccccc1)*; NHBn = c1ccc(CN*)cc1

T3 sequence (P42227 whole entry): as the sequence (P40763 whole entry, the tested form may be a part) above, with E760D counted along it
Sequence of Tyrosine-protein kinase JAK2 (Homo sapiens) (O60674 whole entry): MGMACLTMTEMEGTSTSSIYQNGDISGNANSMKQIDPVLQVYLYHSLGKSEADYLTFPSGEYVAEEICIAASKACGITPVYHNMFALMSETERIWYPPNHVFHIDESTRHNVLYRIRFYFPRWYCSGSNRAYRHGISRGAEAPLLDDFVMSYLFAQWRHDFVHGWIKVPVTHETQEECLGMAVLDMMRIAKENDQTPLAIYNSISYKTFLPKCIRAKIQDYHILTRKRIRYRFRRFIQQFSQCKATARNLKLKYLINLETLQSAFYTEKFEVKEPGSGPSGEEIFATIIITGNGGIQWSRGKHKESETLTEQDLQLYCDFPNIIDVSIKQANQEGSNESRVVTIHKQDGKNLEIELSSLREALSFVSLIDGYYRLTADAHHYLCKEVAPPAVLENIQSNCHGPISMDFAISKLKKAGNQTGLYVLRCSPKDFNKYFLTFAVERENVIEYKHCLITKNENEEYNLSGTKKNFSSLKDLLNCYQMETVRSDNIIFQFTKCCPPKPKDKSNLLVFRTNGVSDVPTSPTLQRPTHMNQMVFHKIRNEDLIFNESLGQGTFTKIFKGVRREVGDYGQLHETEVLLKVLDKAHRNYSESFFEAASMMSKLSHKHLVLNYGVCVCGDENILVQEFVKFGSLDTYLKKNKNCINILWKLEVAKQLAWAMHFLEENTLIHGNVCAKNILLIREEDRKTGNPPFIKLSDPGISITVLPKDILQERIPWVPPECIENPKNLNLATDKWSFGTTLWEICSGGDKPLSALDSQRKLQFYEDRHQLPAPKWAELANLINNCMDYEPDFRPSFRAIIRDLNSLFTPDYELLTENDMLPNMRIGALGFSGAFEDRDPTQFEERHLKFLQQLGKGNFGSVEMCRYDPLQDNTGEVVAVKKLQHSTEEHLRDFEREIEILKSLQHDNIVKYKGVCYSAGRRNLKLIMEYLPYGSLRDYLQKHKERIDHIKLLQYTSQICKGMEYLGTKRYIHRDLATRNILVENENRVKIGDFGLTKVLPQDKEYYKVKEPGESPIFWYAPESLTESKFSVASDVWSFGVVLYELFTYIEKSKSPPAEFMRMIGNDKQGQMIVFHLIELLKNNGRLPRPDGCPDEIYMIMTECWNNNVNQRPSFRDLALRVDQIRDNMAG

In general, Ki refers to a dissociation constant, usually derived from enzyme kinetics or from competition with a known ligand. `CC(C)C[C@H](NC(=O)[C@H](Cc1ccc(OP(=O)(O)O)cc1)NC(=O)CCc1ccccc1)C(=O)N1C[C@@H]2C[C@@H]2[C@H]1C(=O)N[C@@H](CCC(N)=O)C(=O)NCc1ccccc1` (Hydrocinnamoyl-[pY]L[Pro(3S,4R-methano)]Q-NHBn): the inhibition constant (Ki) in experiment [1] was 0.125 µM.

As for `Cc1ccc(S(=O)(=O)N(C)CC(=O)N(Cc2ccc(C3CCN(c4ccc(C#N)cc4)CC3)cc2)c2ccc(C(=O)O)c(O)c2)cc1`, the Ki in [2] is 18.7 µM.

Broadly, the IC50 is the concentration at which inhibition is half-maximal. By Kd is commonly meant a measure of binding affinity in units of concentration. `Cc1ccc(S(=O)(=O)N(C)CC(=O)N(Cc2ccc(C3CCCCC3)cc2)c2ccc(C(=O)O)c(O)c2)cc1`: the IC50 is greater than 200 µM in experiment [3]; greater than 200 µM in experiment [4]; 37 µM in the experiment on MDA-MB-231; greater than 200 µM in the experiment on NIH3T3; 48 µM with PANC-1. In [5], this compound came in with a Ki of no less than 50 µM. In experiment [6], the affinity, expressed as Kd, was 2.74 µM.

`O=C(Nc1ccc(C2CCCCC2)cc1)c1nc(-c2ccccc2)oc1Cc1ccc(OP(=O)(O)O)cc1`: the IC50 in [7] was determined as 33 µM.

In general, inhibition refers to the share of the control response that was lost under treatment. Lower therefore signals little suppression. On to `COc1ccc(/C=C/C(=O)C(C)(C)C(=O)/C=C/c2ccc(OC)c(OC)c2)cc1OC`, for which the inhibition in [8] was found to be 60%.

Regarding `CCCCCCNC(=O)c1nc(-c2cccc3ccccc23)sc1Cc1ccc(OP(=O)(O)O)cc1`, the IC50 in experiment [7] is 25 µM.

As for `Cc1ccc(S(=O)(=O)OCC(=O)Nc2ccc(C(=O)O)c(O)c2)cc1`, the inhibition of growth at 250 µM turned out to be 80% in the experiment with SNU-398; 20% in the experiment on HepG2; 80% in the experiment on Huh-7; 80% with SNU-475; 20% in the experiment on SNU-449. In addition, the growth inhibition (GI) is 80% in experiment [9] and 20% in experiment [10].

With `O=[N+]([O-])c1ccc2c(c1)S(=O)(=O)C=C2`, 5.1 µM corresponded to half-maximal inhibition in experiment [11] (IC50).

In the case of `COc1cccc(NC(=O)c2nc(-c3ccccc3)oc2Cc2ccc(OP(=O)(O)O)cc2)c1`, the IC50 in experiment [7] amounted to 90 µM.

Turning to `C1=Cc2nc1cc1ccc([nH]1)c(-c1ccccc1)c1nc(cc3ccc([nH]3)c2-c2ccccc2)C=C1`, the IC50 in [12] turned out to be 10 µM; in experiment [13], 0.28 µM.

Regarding `CCCCCCNC(=O)c1nc(-c2cccc3ccccc23)oc1Cc1ccc(OP(=O)(O)O)cc1`, the half-maximal inhibitory concentration (IC50) in [7] worked out at 58 µM.

For `COc1cccc(NC(=O)c2nc(-c3ccccc3)sc2Cc2ccc(OP(=O)(O)O)cc2)c1`, the IC50 in experiment [7] was determined as 28 µM.

For orientation: EC50 means the concentration at which the effect is half-maximal. High values mean a less potent agent, low ones a more potent agent. With `O=C(N/N=C/c1ccc([N+](=O)[O-])o1)c1ccc(O)cc1` [NIFUROXAZIDE], the EC50 in experiment [14] stood at 3 µM.

Take `O=C(O)c1ccc(/C=C/C(=O)c2ccc3c(c2)OCCO3)cc1`: the IC50 in [15] worked out at 91 µM; in [16] it was 447 µM.

In experiment [17], `C[C@@H]1CC(=O)c2c(ccc3c2C(=O)c2cccc(O)c2C3=O)C1` gave a fold change (FC) of 5.

Regarding `Cc1ccc(S(=O)(=O)OCC(=O)N(Cc2ccc(C3CCCCC3)cc2)c2ccc(C(=O)O)c(O)c2)cc1`, the inhibition constant (Ki) in experiment [2] amounted to 50 µM.

The record behind these values is ChEMBL document CHEMBL2169778, “Small molecule inhibitors of signal transducer and activator of transcription 3 (Stat3) protein” (J Med Chem, 2012).
